Measured values published in ChEMBL document CHEMBL4428102, “Discovery of an Orally Bioavailable Gonadotropin-Releasing Hormone Receptor Antagonist” (J Med Chem, 2016).

Assays:
[1] = target: T1, Gonadotropin-releasing hormone receptor (Homo sapiens, UniProt P30968); test: Displacement of [125I]D-Trp6-LHRH from human GnRH receptor expressed in CHO-K1 cell membranes incubated for 1 hr by competitive binding assay
T1 sequence (P30968 whole entry): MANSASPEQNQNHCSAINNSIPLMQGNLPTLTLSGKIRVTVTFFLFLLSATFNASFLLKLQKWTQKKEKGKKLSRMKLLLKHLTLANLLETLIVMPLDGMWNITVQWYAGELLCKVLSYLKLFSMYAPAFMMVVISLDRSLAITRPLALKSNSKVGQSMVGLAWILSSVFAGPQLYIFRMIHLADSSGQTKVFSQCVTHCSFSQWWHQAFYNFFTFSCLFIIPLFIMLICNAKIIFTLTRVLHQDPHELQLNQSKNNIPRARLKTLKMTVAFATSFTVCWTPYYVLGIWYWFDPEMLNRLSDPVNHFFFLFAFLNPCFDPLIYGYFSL

[2] = target: T1, Gonadotropin-releasing hormone receptor; test: Antagonist activity against human GnRH receptor expressed in HEK293 cells co-transfected with pGL4-NFAT promoter AP1-luc assessed as inhibition of 20 nM GnRH-induced NFAT activation pre-incubated for 1 hr before GnRH stimulation and measured after 6 hrs by luciferase reporter gene assay; assay type: cell-based
CYP3A4 = CYP3A4 (Homo sapiens, UniProt P08684); test: Inhibition of human recombinant CYP3A4 expressed in baculosomes at 10 uM incubated for 30 mins using BOMR substrate by fluorescence based assay; assay type: ADME; details: probe BOMR
Chain of CYP3A4 (P08684 whole entry): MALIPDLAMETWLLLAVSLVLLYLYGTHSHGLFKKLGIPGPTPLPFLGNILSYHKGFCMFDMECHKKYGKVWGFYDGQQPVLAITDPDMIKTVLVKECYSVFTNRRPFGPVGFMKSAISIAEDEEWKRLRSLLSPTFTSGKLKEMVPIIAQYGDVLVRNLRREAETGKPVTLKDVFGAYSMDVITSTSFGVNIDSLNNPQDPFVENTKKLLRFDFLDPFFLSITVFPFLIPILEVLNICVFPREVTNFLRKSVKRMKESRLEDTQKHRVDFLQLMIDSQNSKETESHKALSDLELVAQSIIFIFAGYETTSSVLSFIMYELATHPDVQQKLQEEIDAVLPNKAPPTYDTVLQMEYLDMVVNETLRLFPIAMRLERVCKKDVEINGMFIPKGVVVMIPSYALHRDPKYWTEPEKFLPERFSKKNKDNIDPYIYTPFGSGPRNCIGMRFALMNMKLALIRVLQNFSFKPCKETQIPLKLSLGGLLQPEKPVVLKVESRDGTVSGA

Compound	IC50 [1]	IC50 [2]	inhibition at 0.5 h, 10 µM (CYP3A4)
Cc1c(N2CCN(Cc3ccccc3C#N)CC2)c(=O)n(C[C@H](N)c2ccccc2)c(=O)n1Cc1c(F)cccc1C(F)(F)F	0.32 nM	351 nM	
COC(=O)c1ccccc1CN1CCN(c2c(C)n(Cc3c(F)cccc3C(F)(F)F)c(=O)n(C[C@H](N)c3ccccc3)c2=O)CC1	24.3 nM	> 10000 nM	
Cc1c(N2CCN(Cc3cccc(C(=O)NCCCC(=O)O)c3)CC2)c(=O)n(C[C@H](N)c2ccccc2)c(=O)n1Cc1c(F)cccc1C(F)(F)F	1.1 nM	376 nM	66%
Cc1c(N2CCN(Cc3cccc([N+](=O)[O-])c3)CC2)c(=O)n(C[C@H](N)c2ccccc2OCC(=O)O)c(=O)n1Cc1c(F)cccc1C(F)(F)F	0.23 nM	27.7 nM	30%
Cc1c(N2CCN(Cc3cocn3)CC2)c(=O)n(C[C@H](N)c2ccccc2)c(=O)n1Cc1c(F)cccc1C(F)(F)F	7.01 nM	> 1000 nM	
Cc1cncc(CN2CCN(c3c(C)n(Cc4c(F)cccc4C(F)(F)F)c(=O)n(C[C@H](N)c4ccccc4)c3=O)CC2)c1	7.18 nM	1180 nM	
Cc1c(N2CCN(Cc3ccc(C(F)(F)F)o3)CC2)c(=O)n(C[C@H](NCCCP(=O)(O)O)c2ccccc2)c(=O)n1Cc1c(F)cccc1C(F)(F)F	1.2 nM	411 nM	16%
Cc1c(N2CCN(Cc3cccc([N+](=O)[O-])c3)CC2)c(=O)n(C[C@H](N)c2ccccc2OCCCC(=O)O)c(=O)n1Cc1c(F)cccc1C(F)(F)F	0.14 nM	26.9 nM	57%
Cc1c(N2CCN(Cc3cccc([N+](=O)[O-])c3)CC2)c(=O)n(C[C@H](N)c2ccccc2)c(=O)n1Cc1c(F)cccc1C(F)(F)F	0.45 nM	102 to 155 nM	89%
Cc1c(N2CCN(Cc3cccc(C(F)(F)F)c3)CC2)c(=O)n(C[C@H](N)c2ccccc2)c(=O)n1Cc1c(F)cccc1C(F)(F)F	0.33 to 0.52 nM	27.9 nM	96%
Cc1c(N2CCN(Cc3cccc(F)c3F)CC2)c(=O)n(C[C@H](N)c2ccccc2)c(=O)n1Cc1c(F)cccc1C(F)(F)F	0.39 nM	266 nM	
Cc1c(N2CCN(Cc3cccc([N+](=O)[O-])c3)CC2)c(=O)n(C[C@H](N)c2ccccc2O)c(=O)n1Cc1c(F)cccc1C(F)(F)F	0.17 nM	89.3 nM	97%
Cc1cc(CN2CCN(c3c(C)n(Cc4c(F)cccc4C(F)(F)F)c(=O)n(C[C@H](N)c4ccccc4)c3=O)CC2)c(C(F)(F)F)o1	> 100 nM	> 1000 nM	
Cc1ccc(CN2CCN(c3c(C)n(Cc4c(F)cccc4C(F)(F)F)c(=O)n(C[C@H](N)c4ccccc4)c3=O)CC2)cn1	14.2 nM	1690 nM	
Cc1c(N2CCN(Cc3cccc4ccsc34)CC2)c(=O)n(C[C@H](N)c2ccccc2)c(=O)n1Cc1c(F)cccc1C(F)(F)F	18.2 nM	10200 nM	
Cc1c(N2CCN(Cc3cccc(OC(F)(F)F)c3)CC2)c(=O)n(C[C@H](N)c2ccccc2)c(=O)n1Cc1c(F)cccc1C(F)(F)F	1 nM	250 nM	
Cc1c(N2CCN(Cc3ccco3)CC2)c(=O)n(C[C@H](N)c2ccccc2)c(=O)n1Cc1c(F)cccc1C(F)(F)F	2.76 nM	> 1000 nM	
Cc1c(N2CCN(Cc3ccon3)CC2)c(=O)n(C[C@H](N)c2ccccc2)c(=O)n1Cc1c(F)cccc1C(F)(F)F	14.1 nM	> 1000 nM	
Cc1c(N2CCN(Cc3cccc([N+](=O)[O-])c3)CC2)c(=O)n(C[C@H](N)c2ccccc2)c(=O)n1Cc1c(F)cccc1F	2.9 nM	401 nM	
Cc1c(N2CCN(Cc3ccc(Cl)nc3)CC2)c(=O)n(C[C@H](N)c2ccccc2)c(=O)n1Cc1c(F)cccc1C(F)(F)F	3.77 nM	554 nM	
Cc1c(N2CCN(Cc3nc4ccccc4s3)CC2)c(=O)n(C[C@H](N)c2ccccc2)c(=O)n1Cc1c(F)cccc1C(F)(F)F	48 nM	4900 nM	
Cc1c(N2CCN(Cc3ccoc3)CC2)c(=O)n(C[C@H](N)c2ccccc2)c(=O)n1Cc1c(F)cccc1C(F)(F)F	6.59 nM	> 1000 nM	
Cc1c(N2CCN(Cc3ccc(C#N)cc3)CC2)c(=O)n(C[C@H](N)c2ccccc2)c(=O)n1Cc1c(F)cccc1C(F)(F)F	1.16 nM	326 nM	
Cc1c(N2CCN(Cc3cnccn3)CC2)c(=O)n(C[C@H](N)c2ccccc2)c(=O)n1Cc1c(F)cccc1C(F)(F)F	20 nM	2050 nM	
CC(=O)c1cccc(CN2CCN(c3c(C)n(Cc4c(F)cccc4C(F)(F)F)c(=O)n(C[C@H](N)c4ccccc4)c3=O)CC2)c1	0.16 nM	16.5 nM	
Cc1c(N2CCN(Cc3cccnc3Cl)CC2)c(=O)n(C[C@H](N)c2ccccc2)c(=O)n1Cc1c(F)cccc1C(F)(F)F	2.57 nM	526 nM	
Cc1c(N2CCN(Cc3ccc(C#N)o3)CC2)c(=O)n(C[C@H](N)c2ccccc2)c(=O)n1Cc1c(F)cccc1C(F)(F)F	0.17 nM	103 nM	

Compound	IC50 [1]	IC50 [2]	inhibition at 0.5 h, 10 µM (CYP3A4)
Cc1c(N2CCN(Cc3nccs3)CC2)c(=O)n(C[C@H](N)c2ccccc2)c(=O)n1Cc1c(F)cccc1C(F)(F)F	17.7 nM	1660 nM	
Cc1c(N2CCN(Cc3cccc(S(C)(=O)=O)c3)CC2)c(=O)n(C[C@H](N)c2ccccc2)c(=O)n1Cc1c(F)cccc1C(F)(F)F	0.38 nM	214 nM	
Cc1c(N2CCN(Cc3cccc(F)c3)CC2)c(=O)n(C[C@H](N)c2ccccc2)c(=O)n1Cc1c(F)cccc1C(F)(F)F	1.7 nM	321 nM	
Cc1c(N2CCN(Cc3cccc(C#N)c3F)CC2)c(=O)n(C[C@H](N)c2ccccc2)c(=O)n1Cc1c(F)cccc1C(F)(F)F		61 nM	
COC(=O)c1ccc(CN2CCN(c3c(C)n(Cc4c(F)cccc4C(F)(F)F)c(=O)n(C[C@H](N)c4ccccc4)c3=O)CC2)o1	0.31 nM	64 nM	
Cc1c(N2CCN(Cc3cccc(-c4ncco4)c3)CC2)c(=O)n(C[C@H](N)c2ccccc2)c(=O)n1Cc1c(F)cccc1C(F)(F)F		53 nM	
Cc1c(N2CCN(Cc3cncs3)CC2)c(=O)n(C[C@H](N)c2ccccc2)c(=O)n1Cc1c(F)cccc1C(F)(F)F	8.94 nM	930 nM	
Cc1c(N2CCN(Cc3cccnc3F)CC2)c(=O)n(C[C@H](N)c2ccccc2)c(=O)n1Cc1c(F)cccc1C(F)(F)F	1.07 nM	193 nM	
Cc1c(N2CCN(Cc3cccc(C(F)(F)F)n3)CC2)c(=O)n(C[C@H](N)c2ccccc2)c(=O)n1Cc1c(F)cccc1C(F)(F)F		217 nM	
Cc1c(N2CCN(Cc3cccc(C#N)c3)CC2)c(=O)n(C[C@H](N)c2ccccc2)c(=O)n1Cc1c(F)cccc1C(F)(F)F	0.41 nM	213 nM	
Cc1c(N2CCN(Cc3ccc(C(F)(F)F)s3)CC2)c(=O)n(C[C@H](N)c2ccccc2)c(=O)n1Cc1c(F)cccc1C(F)(F)F		62 nM	
Cc1c(N2CCN(Cc3cccnc3)CC2)c(=O)n(C[C@H](N)c2ccccc2)c(=O)n1Cc1c(F)cccc1C(F)(F)F	2 nM	290 nM	
Cc1c(N2CCN(Cc3ccnc(C(F)(F)F)c3)CC2)c(=O)n(C[C@H](N)c2ccccc2)c(=O)n1Cc1c(F)cccc1C(F)(F)F		226 nM	
Cc1ncccc1CN1CCN(c2c(C)n(Cc3c(F)cccc3C(F)(F)F)c(=O)n(C[C@H](N)c3ccccc3)c2=O)CC1	5.11 nM	543 nM	
Cc1c(N2CCN(Cc3ccccc3F)CC2)c(=O)n(C[C@H](N)c2ccccc2)c(=O)n1Cc1c(F)cccc1C(F)(F)F	1 nM	340 nM	
Cc1c(N2CCN(Cc3ccc(Cl)o3)CC2)c(=O)n(C[C@H](N)c2ccccc2)c(=O)n1Cc1c(F)cccc1C(F)(F)F	0.39 nM	178 nM	
Cc1c(N2CCN(Cc3ccc(=O)[nH]c3)CC2)c(=O)n(C[C@H](N)c2ccccc2)c(=O)n1Cc1c(F)cccc1C(F)(F)F	28.1 nM	1090 nM	
Cc1c(N2CCN(Cc3cccs3)CC2)c(=O)n(C[C@H](N)c2ccccc2)c(=O)n1Cc1c(F)cccc1C(F)(F)F	1.27 nM	> 1000 nM	
Cc1c(N2CCN(Cc3cccc([S+](C)[O-])c3)CC2)c(=O)n(C[C@H](N)c2ccccc2)c(=O)n1Cc1c(F)cccc1C(F)(F)F (stereo not given in full)		51.2 nM	
Cc1c(N2CCN(Cc3ccncn3)CC2)c(=O)n(C[C@H](N)c2ccccc2)c(=O)n1Cc1c(F)cccc1C(F)(F)F		> 300 nM	
COC(=O)c1cccc(CN2CCN(c3c(C)n(Cc4c(F)cccc4C(F)(F)F)c(=O)n(C[C@H](N)c4ccccc4)c3=O)CC2)c1	0.39 nM	23.3 nM	
Cc1c(N2CCN(Cc3cccnc3C(F)(F)F)CC2)c(=O)n(C[C@H](N)c2ccccc2)c(=O)n1Cc1c(F)cccc1C(F)(F)F		> 300 nM	
Cc1ccc(CN2CCN(c3c(C)n(Cc4c(F)cccc4C(F)(F)F)c(=O)n(C[C@H](N)c4ccccc4)c3=O)CC2)o1		> 300 nM	
Cc1c(N2CCN(Cc3cccc4occc34)CC2)c(=O)n(C[C@H](N)c2ccccc2)c(=O)n1Cc1c(F)cccc1C(F)(F)F		> 300 nM	
Cc1c(N2CCN(Cc3cncc(F)c3)CC2)c(=O)n(C[C@H](N)c2ccccc2)c(=O)n1Cc1c(F)cccc1C(F)(F)F	2 nM	1510 nM	
Cc1c(N2CCN(Cc3cccc4nonc34)CC2)c(=O)n(C[C@H](N)c2ccccc2)c(=O)n1Cc1c(F)cccc1C(F)(F)F	0.6 nM	885 nM	
Cc1c(N2CCN(Cc3cscn3)CC2)c(=O)n(C[C@H](N)c2ccccc2)c(=O)n1Cc1c(F)cccc1C(F)(F)F	35.6 nM	2130 nM	
